Laboratory results as given in patent publication US20240342111A1, “ISOMER-SPECIFIC NEUROPROTECTIVE EFFECT OF NATURAL RESERVATROL” (priority 2021, published 2024).

Tests used:
[1] = tested on: Rat cortical neurons transfected with TyrRS siRNA; test: TyrRS siRNA knockdown, then excitotoxic NMDA, MTT assay; assay type: cell-based; settings: 24 hours
Method: Cells viability was assessed using MTT assay. […] Cells were then exposed to excitotoxic NMDA (500 μM for 5 minutes), and viability was assessed using MTT assay after 24 hours.
Primary cortical neuron cultures were obtained from E18 Sprague Dawley rats' cortices, which were dissected in Hibernate E (BrainBits) and dissociated using the Neural Tissue Dissociation kit (Miltenyi Biotec). For this, minced cortices were incubated in a pre-warmed enzyme mix at 37° C. for 15 min; tissues were then triturated and strained using a 40 μm cell strainer. After washing and centrifugation, neurons were seeded in 50 μg/ml poly-D-Lysine (Sigma Aldrich) coated tissue culture plates. NBActive-1 medium (BrainBits) supplemented with 100 U/ml of Penicillin-Streptomycin (Life Technologies), 2 mM L-Glutamine (Life Technologies), and 1 X N21 supplement (R&D Systems) was used as culture medium. Control (AM4635), TyrRS (s443), PARP1 (s130207) siRNA for transfection were obtained from Invitrogen. On 5 DIV, rat cortical neurons were transfected with 75 nM control or TyrRS siRNA using Dharmafect 3 Transfection Reagent. A second transfection was done two days later using 75 nM of TyrRS siRNA, followed by cell collection or assays after another 48 hours. For PARP1 siRNA, on 7 DIV, neurons were transfected with 75 nM siRNA for both control and PARP1 siRNA.
Rat cortical neurons (DIV 10-11) were exposed to different treatments after seeding 20,000 cells/well in 96-well plates. Cell viability was then assessed at 48 hours after the initial exposure to NMDA. 3-[4,5-dimethylthiazole-2-yl]-2,5-diphenyltetrazolium bromide (MTT) assays were used to assess change in cell viability. Cultured rat cortical neurons were incubated with MTT (0.5 mg/mL). […] The percentage of MTT reduced as measured by the difference between the absorbances at 570 nm read in a spectrophotometer (Spectramax 190R Molecular Devices, UK). The percentage of reduction of MTT was calculated comparing the difference of the absorbance at 570 of each sample. […]

[2] = tested on: TyrRS; test: Immunostaining of neuronal TyrRS under neurotoxic agents (NMDA, MPP+); assay type: cell-based, rat; settings: 50 μM in combination with 50 μM NMDA or 100 μM MPP+, 4 hours
[3] = target: T1, TyrRS (Rattus norvegicus, UniProt Q4KM49); test: Immunostaining of neuronal TyrRS, RSV alone or in combination with Aβ; assay type: cell-based; settings: 16 hours; for TyrRS protein levels: alone, 50μ; for Aβ-mediated downregulation of TyrRS: co-treatment 50μ with Aβ 50 nM
T1 construct: Primary cortical neuron cultures were obtained from E18 Sprague Dawley rats' cortices; endogenous in cells; host or cells: rat primary cortical neurons (E18 Sprague Dawley)
T1 sequence (Q4KM49 1-528): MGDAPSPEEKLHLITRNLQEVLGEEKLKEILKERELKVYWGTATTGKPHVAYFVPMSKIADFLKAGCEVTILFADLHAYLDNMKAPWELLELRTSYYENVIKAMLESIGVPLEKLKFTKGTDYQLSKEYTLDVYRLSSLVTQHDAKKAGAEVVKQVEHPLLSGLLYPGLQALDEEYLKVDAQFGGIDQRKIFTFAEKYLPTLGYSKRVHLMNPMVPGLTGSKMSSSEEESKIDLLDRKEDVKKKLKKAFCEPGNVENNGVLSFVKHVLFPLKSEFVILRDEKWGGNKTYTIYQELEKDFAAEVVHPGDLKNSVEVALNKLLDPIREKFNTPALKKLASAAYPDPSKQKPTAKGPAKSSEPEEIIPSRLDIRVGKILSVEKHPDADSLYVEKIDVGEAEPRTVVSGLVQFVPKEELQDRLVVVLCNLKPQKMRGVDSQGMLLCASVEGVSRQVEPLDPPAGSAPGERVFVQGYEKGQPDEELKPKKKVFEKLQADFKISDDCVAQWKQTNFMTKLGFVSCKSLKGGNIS

[4] = tested on: PARP1; test: Immunoblot of chromatin fraction for PARP1 and PAR; assay type: cell-based, rat; settings: 50 μM, 1 hour
[5] = tested on: γ-H2AX foci; test: Immunostaining of DNA damage marker pSer139-H2AX (γ-H2AX) foci; assay type: cell-based, rat; settings: 24 hours; for Aβ-mediated accumulation of γ-H2AX foci: 50 μM in combination with Aβ 50 nM; for γ-H2AX foci: alone, 50 μM

Oc1ccc(/C=C\c2cc(O)cc(O)c2)cc1 [cis-RSV, cis-resveratrol]
effect of TyrRS knockdown on viability under excitotoxic NMDA ([1]; cis-RSV 50 μM): blunted the neuroprotective effect
neurotoxicity-mediated downregulation of neuronal TyrRS [2]: protected against the downregulation of neuronal TyrRS
TyrRS protein levels [3]: upregulation of the TyrRS protein levels
Aβ-mediated downregulation of TyrRS [3]: protected against Aβ-mediated downregulation of TyrRS
PARP1 and PAR in the chromatin fraction [4]: downregulated PARP1 (170 kDa) and PAR modification in the chromatin fraction
Aβ-mediated accumulation of γ-H2AX foci [5]: rescued A β-mediated accumulation of γ-H2AX foci
γ-H2AX foci [5]: downregulated the accumulation of γ-H2AX foci

Oc1ccc(/C=C/c2cc(O)cc(O)c2)cc1 [trans-RSV, trans-resveratrol]
effect of TyrRS knockdown on viability under excitotoxic NMDA ([1]; low dose trans-RSV 5, 10 μM): blunted the neuroprotective effect
effect of TyrRS knockdown on toxic effects under excitotoxic NMDA ([1]; trans-RSV 50 μM): exacerbated the toxic effects
neurotoxicity-mediated downregulation of neuronal TyrRS [2]: exacerbated the downregulation
TyrRS protein levels [3]: downregulation
Aβ-mediated downregulation of TyrRS [3]: exacerbated the downregulation of TyrRS
PARP1 and PAR in the chromatin fraction [4]: enhanced the association (‘trapping’) of PARP1 with chromatin
Aβ-mediated accumulation of γ-H2AX foci [5]: exacerbated the accumulation of γ-H2AX foci
γ-H2AX foci [5]: caused the accumulation of γ-H2AX foci
